Patent US20130178534A1, “N-Nonanoylvanillylamine as an agent for reducing the appetite, as an agent for imparting a feeling of fullness and as a mood enhancer, and corresponding substance mixtures, orally consumable products and methods” (Symrise AG, priority 2012, published 2013)

Key:
SH-SY5Y cells [1] = experiment: Release of dopamine by SH-SY5Y cells (Example 1); type: cell-based, Human; conditions: for T/C [%] release of dopamine: 3 minutes, normalised to control
Method: (§1) Human neuroblastoma cells (SH-SY5Y, ATCC number CRL-2266) are used as the cell model. Cultivation takes place at 37° C. and 5% CO2 content with a mixture consisting of equal parts of Eagle's Minimum Essential Medium (MEM) and F12 medium (in each case with 10% FBS and 1% penicillin/streptomycin). For measurement of the release of dopamine and serotonin, the cells are harvested with trypsin and, after a vitality test by trypan blue staining, are sown in a defined cell number in 35 mm cell culture dishes.
Method for measuring the release of dopamine:
After stimulation of 1.25*10^6 human neuroblastoma cells (SH-SY5Y) for 3 minutes with 350 μl of Krebs-Ringer HEPES buffer, pH 5, with or without addition of N-nonanoylvanillylamine (wherein in the case of addition of N-nonanoylvanillylamine, concentrations of 0.1 μM, 1 μM and 10 μM are established in the Krebs-Ringer HEPES buffer), the supernatant is acidified with 1 N HCl and the dopamine content is determined by means of an enzyme-based detection method (dopamine ELISA, DLD Diagnostica, Hamburg, Germany). The cells are lysed with a buffer containing sodium lauryl sarcosinate, and the DNA content is determined by means of a NanoQuant plate (Tecan, Ménnendorf, Switzerland) for normalisation of the dopamine release. In the case of an ethanol control (EtOH control), no N-nonanoylvanillylamine is added to the Krebs-Ringer HEPES buffer, but ethanol is added to the buffer so that a 0.1% ethanolic Krebs-Ringer HEPES buffer solution is obtained. In the case of the positive control, acetylcholine is used instead of the N-nonanoylvanillylamine, a concentration of 100 μM acetylcholine being established in the Krebs-Ringer HEPES buffer.

SH-SY5Y cells [2] = experiment: Release of serotonin by SH-SY5Y cells (Example 3); type: cell-based, Human; conditions: for T/C [%] release of serotonin: normalised to control
Method: as §1
After stimulation of 1.25*10^6 human neuroblastoma cells (SH-SY5Y) for 3 minutes with 300 μl of Krebs-Ringer HEPES buffer, 0.1% ascorbic acid, pH 6.2, with or without addition of N-nonanoylvanillylamine (wherein in the case of addition of N-nonanoylvanillylamine, concentrations of 0.01 μM, 0.1 μM, 1 μM and 10 μM are established in the Krebs-Ringer HEPES buffer), the serotonin content is determined by means of an enzyme-based detection method (serotonin ELISA sensitive, […], Hamburg, Germany). The cells are lysed with a buffer containing sodium lauryl sarcosinate, and the DNA content is determined by means of a NanoQuant plate (Tecan, Ménnendorf, Switzerland) for normalisation of the serotonin release.

[3] = Kollmannsberger 2007; cited from earlier work
SH-SY5Y cells [4] = experiment: Release of serotonin by SH-SY5Y cells with N-nonanoylvanillylamine and a TRPV1 inhibitor (Example 4); type: cell-based, Human
Method: as §1
After stimulation of 1.25*10^6 human neuroblastoma cells (SH-SY5Y) for 3 minutes with 300 μl of Krebs-Ringer HEPES buffer (0.1% ascorbic acid, pH 6.2), with or without addition of N-nonanoylvanillylamine (so that a concentration of 1 μM N-nonanoylvanillylamine is established in the Krebs-Ringer HEPES buffer) in combination with different application-relevant amounts of the selective TRPV1 inhibitor trans-4-tert-butylcyclohexanol, the serotonin content is determined by means of an enzyme-based detection method (serotonin ELISA sensitive, DLD Diagnostica, Hamburg, Germany). The cells are lysed with a buffer containing sodium lauryl sarcosinate, and the DNA content is determined by means of a NanoQuant plate in a plate reader (Tecan, Ménnendorf, Switzerland) for normalisation of the serotonin release.

SH-SY5Y cells [5] = experiment: Release of dopamine by SH-SY5Y cells with N-nonanoylvanillylamine and a TRPV1 inhibitor (Example 2); type: cell-based, Human
Method: as §1
After stimulation of 1.25*10^6 human neuroblastoma cells (SH-SY5Y) for 3 minutes with 350 μl of Krebs-Ringer HEPES buffer, pH 5, with or without addition of 1 μM N-nonanolyvanillylamine (wherein in the case of addition of N-nonanoylvanillylamine, a concentration of 1 μM is established in the Krebs-Ringer HEPES buffer) in combination with different application-relevant amounts of the selective TRPV1 inhibitor trans-4-tert-butylcyclohexanol (so that concentrations of 25, 50 and 80 μM of trans-4-tert-butylcyclo-hexanol are established in the Krebs-Ringer HEPES buffer), the supernatant is acidified with 1 N HCl and the dopamine content is determined by means of an enzyme-based detection method (dopamine ELISA, DLD Diagnostica, Hamburg, Germany). The cells are lysed with a buffer containing sodium lauryl sarcosinate, and the DNA content is determined by means of a NanoQuant plate (Tecan, Ménnendorf, Switzerland) for normalisation of the dopamine release. For comparison purposes, the tests were repeated without the addition of N-nonanoylvanillylamine.

[6] = cited from earlier work
[7] = N-nonanoylvanillylamine 1 μM + 25 μM trans-4-tert-butylcyclohexanol
[8] = N-nonanoylvanillylamine 1 μM + 50 μM trans-4-tert-butylcyclohexanol
[9] = N-nonanoylvanillylamine 1 μM + 80 μM trans-4-tert-butylcyclohexanol
[10] = N-nonanoylvanillylamine 1 μM alone
[11] = 25 μM alone, without N-nonanoylvanillylamine
[12] = 50 μM alone, without N-nonanoylvanillylamine
[13] = 80 μM alone, without N-nonanoylvanillylamine

## CC(=O)OCC[N+](C)(C)C [Acetylcholine, acetylcholine, reference compound]
SH-SY5Y cells [1]; 100 μM (positive control)
  T/C [%] release of dopamine: 139.84%

## [Cl-].[K+] [KCl, potassium chloride, reference compound]
SH-SY5Y cells [2]; 50 mM (positive control)
  T/C [%] release of serotonin: 153.48%

## CCCCCCCCC(=O)NCc1ccc(O)c(OC)c1 [N-Nonanoylvanillylamine]
[3]
  detection threshold: 0.107 mg/kg
  stimulant threshold: 0.054 mg/kg
SH-SY5Y cells [1]; 0.1 μM
  T/C [%] release of dopamine: 697.84%
SH-SY5Y cells [1]; 100 nM
  increase in the amount of dopamine released by SH-SY5Y cells: seven-fold increase
SH-SY5Y cells [1]; 1 μM
  T/C [%] release of dopamine: 1350.94%
SH-SY5Y cells [1]; 10 μM
  T/C [%] release of dopamine: 1774.98%
SH-SY5Y cells [1]; approximately 0.03 mg/kg (0.1 μM)
  stimulating the release of dopamine, compared with the respective control: about 700%
SH-SY5Y cells [2]; 0.01 μM, 3 minutes
  T/C [%] release of serotonin: 191.35%
SH-SY5Y cells [2]; 0.1 μM and above, p<0.005
  amount of serotonin released by SH-SY5Y cells: increases highly significantly
SH-SY5Y cells [2]; 0.1 μM, 3 minutes
  T/C [%] release of serotonin: 226.44%
SH-SY5Y cells [2]; 1 μM, 3 minutes
  T/C [%] release of serotonin: 272.12%
SH-SY5Y cells [2]; 10 μM, 3 minutes
  T/C [%] release of serotonin: 185.65%
SH-SY5Y cells [2]; concentration range 0.01 μM to 10 μM (0.003 mg/kg to 3 mg/kg)
  stimulating the release of serotonin in neurons, maximum, compared with the respective control: about 270%
SH-SY5Y cells [4]; 1 μM N-nonanoylvanillylamine
  influence of addition of TRPV1 inhibitor trans-4-tert-butylcyclohexanol on the serotonin release: not significantly influenced
SH-SY5Y cells [4]; [7]
  T/C [%] release of serotonin: 154.86%
SH-SY5Y cells [4]; [8]
  T/C [%] release of serotonin: 128.74%
SH-SY5Y cells [4]; [9]
  T/C [%] release of serotonin: 140.81%
SH-SY5Y cells [4]; N-nonanoylvanillylamine 1 μM + 200 μM trans-4-tert-butylcyclohexanol
  T/C [%] release of serotonin: 181.93%
SH-SY5Y cells [4]; [10]
  T/C [%] release of serotonin: 151.75%
SH-SY5Y cells [5]; 1 μM
  increase in the amount of dopamine released: five-fold increase
SH-SY5Y cells [5]; 1 μM N-nonanoylvanillylamine, inhibitor 25, 50 and 80 μM
  influence of simultaneous stimulation with TRPV1 inhibitor trans-4-tert-butylcyclohexanol on the dopamine release: not significantly influenced
SH-SY5Y cells [5]; [7]
  T/C [%] release of dopamine: 433.55%
SH-SY5Y cells [5]; [8]
  T/C [%] release of dopamine: 456.80%
SH-SY5Y cells [5]; [9]
  T/C [%] release of dopamine: 422.48%
SH-SY5Y cells [5]; [10]
  T/C [%] release of dopamine: 501.20%
[6]; rated in FGE.86
  EFSA safety rating: no safety concern

## COc1cc(CNC(=O)CCCC/C=C/C(C)C)ccc1O [capsaicin, reference compound]
[6]; EFSA / Scientific Committee on Food opinion 2002
  rating for genotoxicity: negatively rated as having genotoxic potential

## CC(C)(C)[C@H]1CC[C@H](O)CC1 [trans-4-tert-butylcyclohexanol, reference compound]
SH-SY5Y cells [4]; [11]
  T/C [%] release of serotonin: 91.07%
SH-SY5Y cells [4]; [12]
  T/C [%] release of serotonin: 101.39%
SH-SY5Y cells [4]; [13]
  T/C [%] release of serotonin: 84.129%
SH-SY5Y cells [4]; 200 μM alone, without N-nonanoylvanillylamine
  T/C [%] release of serotonin: 110.99%
SH-SY5Y cells [5]; [11]
  T/C [%] release of dopamine: 84.47%
SH-SY5Y cells [5]; [12]
  T/C [%] release of dopamine: 38.19%
SH-SY5Y cells [5]; [13]
  T/C [%] release of dopamine: 63.53%
